For the assay, the system named is blue green algae. As to the kind of experiment: Pond treatment, algae control in a four-foot deep pond (Example 1). Type of assay: in vivo. The note with it: treated every two weeks for approximately 6 years during the warmer season. From the text: The solid form of this invention containing approximately 70% calcium peroxide was applied to the pond by spreading it over the surface at a rate of 10 lbs per acre foot.

With `O=S(=O)([O-])[O-].[Cu+2]` [copper sulfate], the control of algae entry was “control of algae was still difficult”.

(Values after patent publication US20090069181A1, “Product and Process for Treating Water Bodies, Sediments and Soils” (SOLVAY SA, priority 2006, published 2009).)
